Results taken from article PMC4770311, “Discovery and Characterization of GSK2801, a Selective Chemical Probe for the Bromodomains BAZ2A and BAZ2B” (Journal of Medicinal Chemistry, 2015).
“And” between values parts separate entries of the source, which are not always exact repeats. Equal entries are not always repeated.

Experiments:
[1] = biological target: T1, BRD9 (Homo sapiens, UniProt Q9H8M2); assay: AlphaScreen cross screening BRD9; assay type: binding; details: average of three replicates ± SEM
T1 construct: ITC experiments using the bromodomain of BRD9
Procedure: (§1) AlphaScreen: AlphaScreen was performed as described previously 10, with minor modifications from the manufacturers protocol (PerkinElmer, USA). Briefly, all reagents were diluted in the recommended buffer (50 mM HEPES, 100 mM NaCl, 0.1% BSA; pH = 7.4) supplemented with 0.05% CHAPS and allowed to equilibrate to room temperature prior to […]
(§2) Plates were sealed and incubated at room temperature for 30 min. 4 μL of streptavidin-coated donor beads (10ug/mL final) and 4 μL of nickel chelate acceptor beads (10 μg/ml final) were then added under low light conditions. Plates were foil sealed to protect from light, incubated at room temperature for 60 min and read on a PHERAstar FS plate reader (BMG Labtech, Germany) using an AlphaScreen 680 excitation/570 emission filter set.
(§3) Fragments were dissolved in ethylene glycol to overcome sensitivity of the bromodomain assay to DMSO and allow compounds to be screened at mM concentrations. IC50 […]
(§4) measurements were taken over a 12 point 1:2 serial dilution of compound. IC50s were calculated in GraphPad Prism 5 (GraphPad Software, USA). […]

[2] = biological target: T2, BAZ2A (Homo sapiens, UniProt Q9UIF9); assay: AlphaScreen assay BAZ2A; assay type: binding; details: average of three replicates ± SEM
T2 construct: Recombinant BAZ2A and BAZ2B bromodomains were expressed in; made in house; host or cells: E. coli
T2 sequence (Q9UIF9 1793-1897 limits assumed): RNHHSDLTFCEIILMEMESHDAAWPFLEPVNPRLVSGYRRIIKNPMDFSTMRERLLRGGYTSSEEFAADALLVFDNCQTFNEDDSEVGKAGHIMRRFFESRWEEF
Procedure: as §1, §2, §3, §4

[3] = biological target: T3, BRD4(1) (Homo sapiens, UniProt O60885); assay: AlphaScreen cross screening BRD4(1); assay type: binding; details: average of three replicates ± SEM
T3 construct: […]
Procedure: as §1, §2, §3, §4

[4] = biological target: T1, BRD9; assay: Isothermal titration calorimetry BRD9; assay type: binding; details: ITC
Procedure: VP-ITC (MicroCal) at 15 °C.
reaction cell containing the inhibitors (15 µM). Integrated heat of the titrations after corrected
modifications from the manufacturers protocol (PerkinElmer, USA). Briefly, all reagents were
final) were then added under low light conditions. Plates were foil sealed to protect from […]

[5] = biological target: T4, BRD9 (Homo sapiens, UniProt Q9H8M2); assay: Chemoproteomic competition binding assay, endogenous BRD9; details: HuT78 extracts; competition with affinity matrix
T4 construct: endogenous in cells; host or cells: HuT78
T4 sequence (Q9H8M2 1-597): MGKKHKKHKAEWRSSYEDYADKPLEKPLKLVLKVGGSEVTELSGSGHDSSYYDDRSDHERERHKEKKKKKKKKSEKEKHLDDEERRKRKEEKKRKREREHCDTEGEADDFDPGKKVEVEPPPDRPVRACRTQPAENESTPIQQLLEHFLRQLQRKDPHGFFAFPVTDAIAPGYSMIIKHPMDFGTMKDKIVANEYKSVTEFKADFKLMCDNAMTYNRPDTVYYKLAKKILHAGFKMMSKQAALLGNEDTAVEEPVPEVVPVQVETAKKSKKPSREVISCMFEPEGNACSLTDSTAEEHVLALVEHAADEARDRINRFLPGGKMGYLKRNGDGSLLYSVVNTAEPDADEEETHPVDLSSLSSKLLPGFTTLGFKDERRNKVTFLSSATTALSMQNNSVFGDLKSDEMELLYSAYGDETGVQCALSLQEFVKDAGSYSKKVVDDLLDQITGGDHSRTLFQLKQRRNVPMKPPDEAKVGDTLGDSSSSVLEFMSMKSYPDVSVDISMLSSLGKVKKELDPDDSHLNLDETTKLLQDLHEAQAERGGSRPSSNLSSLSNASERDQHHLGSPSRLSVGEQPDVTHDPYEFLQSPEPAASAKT

[6] = biological target: SMARCA2 and 4; assay: Chemoproteomic competition binding assay, endogenous SMARCA2 and 4; details: HuT78 extracts; likely indirect via BRD9 in BAF complex
[7] = test system: panel of biotin-labeled bromodomains; details: two concentrations, 0.2 and 1.0 μM
Procedure: measurements were taken over a 12 point 1:2 serial dilution of compound. IC50s were calculated in GraphPad Prism 5 (GraphPad Software, USA).
Biolayer interference assays. BAZ2A and BAZ2B were expressed in frame with a C- […]
of a single biotin using the biotin ligase (BirA) which has been co-expressed in E. coli using the co-expression vector BL21(DE3)-R3-pRARE2-BirA. Cells were grown in the presence of 0.1 mM biotin and were lysed and purified using a similar procedure as described for the non-biotin labelled protein.
The biotin labelled BAZ2B and BAZ2A was immobilized on SuperStreptavidin BLI sensors.
BioLayer Interferometry (BLI) experiments were performed on a 16-channel ForteBio Octet […]
buffer. The reference sensors without attached bromodomain were used to subtract background binding to SuperStreptavidin sensors. Data were processed and analysed using ForteBio Analysis software.
Determination of PK profiles for GSK2801 after IP (intraperitoneal) and PO (oral) administrations to male CD-1 mice: These PK studies were performed by the DMPK […]
The IP and PO dosing solutions were prepared in 0.5%
Test system: CD-1 mice, 28-32g, male, N=18, purchased from SLAC Laboratory Animal Co.
LTD. The animals were given free access to food and water. A dose of 30 mg/kg (10 mL/kg) was used via intraperitoneal injection (N=9) and for oral dosing 30 mg/kg (10 mL/kg) via gavage (N=9). […]

[8] = biological target: BAZ2B (Homo sapiens, UniProt Q9UIF8); assay: Chemoproteomic competition binding assay, endogenous BAZ2B; details: up to a concentration of 50 μM; HuT78 extracts
[9] = biological target: BAZ2A (Homo sapiens, UniProt Q9UIF9); assay: Chemoproteomic competition binding assay, endogenous BAZ2A; details: up to a concentration of 50 μM; HuT78 extracts
Target sequence in this assay (Q9UIF9 whole entry): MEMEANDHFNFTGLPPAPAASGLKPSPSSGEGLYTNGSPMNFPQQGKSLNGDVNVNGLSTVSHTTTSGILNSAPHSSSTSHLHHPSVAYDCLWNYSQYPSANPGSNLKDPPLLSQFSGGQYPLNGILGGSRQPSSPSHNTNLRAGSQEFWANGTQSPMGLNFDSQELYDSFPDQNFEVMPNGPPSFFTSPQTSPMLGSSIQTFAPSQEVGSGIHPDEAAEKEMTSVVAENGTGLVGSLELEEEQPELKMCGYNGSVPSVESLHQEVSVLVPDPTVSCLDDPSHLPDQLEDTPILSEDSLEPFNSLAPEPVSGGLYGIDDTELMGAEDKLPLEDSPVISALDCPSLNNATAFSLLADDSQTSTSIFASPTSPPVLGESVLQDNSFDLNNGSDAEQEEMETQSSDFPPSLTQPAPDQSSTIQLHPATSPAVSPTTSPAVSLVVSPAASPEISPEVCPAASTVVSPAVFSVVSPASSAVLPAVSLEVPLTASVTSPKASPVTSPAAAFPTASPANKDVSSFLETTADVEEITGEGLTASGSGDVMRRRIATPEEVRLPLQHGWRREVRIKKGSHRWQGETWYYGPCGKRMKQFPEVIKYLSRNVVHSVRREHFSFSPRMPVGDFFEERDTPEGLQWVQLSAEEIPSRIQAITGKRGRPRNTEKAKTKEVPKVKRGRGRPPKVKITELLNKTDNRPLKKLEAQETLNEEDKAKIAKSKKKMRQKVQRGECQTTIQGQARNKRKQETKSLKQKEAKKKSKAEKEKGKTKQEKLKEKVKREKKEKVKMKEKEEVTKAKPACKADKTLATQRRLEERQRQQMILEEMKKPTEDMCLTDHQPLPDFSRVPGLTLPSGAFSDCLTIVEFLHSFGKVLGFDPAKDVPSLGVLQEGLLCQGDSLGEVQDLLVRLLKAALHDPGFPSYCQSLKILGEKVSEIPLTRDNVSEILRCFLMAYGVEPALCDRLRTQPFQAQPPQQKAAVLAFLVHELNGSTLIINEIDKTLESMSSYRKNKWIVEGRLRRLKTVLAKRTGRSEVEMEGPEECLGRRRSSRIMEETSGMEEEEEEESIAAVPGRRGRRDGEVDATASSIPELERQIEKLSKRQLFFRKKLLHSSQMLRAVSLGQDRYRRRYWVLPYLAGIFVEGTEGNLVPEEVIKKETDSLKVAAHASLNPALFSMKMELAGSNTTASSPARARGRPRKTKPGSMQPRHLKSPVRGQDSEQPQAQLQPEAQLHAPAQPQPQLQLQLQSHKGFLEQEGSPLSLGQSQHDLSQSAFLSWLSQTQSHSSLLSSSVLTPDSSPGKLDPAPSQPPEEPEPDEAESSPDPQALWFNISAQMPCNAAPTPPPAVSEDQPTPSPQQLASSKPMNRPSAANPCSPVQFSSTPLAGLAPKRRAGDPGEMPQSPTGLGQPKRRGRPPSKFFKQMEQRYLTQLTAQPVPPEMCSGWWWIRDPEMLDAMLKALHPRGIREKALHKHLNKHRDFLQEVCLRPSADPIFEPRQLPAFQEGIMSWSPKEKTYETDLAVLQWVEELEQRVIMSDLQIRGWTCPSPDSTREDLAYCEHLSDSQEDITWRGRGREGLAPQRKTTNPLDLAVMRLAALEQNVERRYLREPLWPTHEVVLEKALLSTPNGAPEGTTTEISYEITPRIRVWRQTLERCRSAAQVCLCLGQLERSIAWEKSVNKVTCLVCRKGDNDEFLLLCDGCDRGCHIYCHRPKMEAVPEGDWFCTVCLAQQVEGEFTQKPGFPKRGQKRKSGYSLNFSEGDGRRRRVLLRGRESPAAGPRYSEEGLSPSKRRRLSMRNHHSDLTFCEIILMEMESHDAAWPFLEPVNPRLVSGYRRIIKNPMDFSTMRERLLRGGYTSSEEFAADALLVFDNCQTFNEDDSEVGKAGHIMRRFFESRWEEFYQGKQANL

[10] = biological target: T1, BRD9; assay: Thermal stability shift assay BRD9; assay type: binding; details: inhibitor concentration 10 μM; read-out: temperature shift (ΔTm) BRD9
[11] = biological target: T5, TAF1L(2) (Homo sapiens, UniProt Q8IZX4); assay: Isothermal titration calorimetry TAF1L(2); assay type: binding; details: ITC
T5 construct: the second bromodomain in TAF1L(2)
T5 sequence (Q8IZX4 1517-1626 limits assumed): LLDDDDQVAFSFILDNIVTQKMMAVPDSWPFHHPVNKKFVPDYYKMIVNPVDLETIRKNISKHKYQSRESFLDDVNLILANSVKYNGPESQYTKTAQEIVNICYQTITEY
Procedure: Thermal stability shift assays: The recombinant bromodomains at 2 µM were mixed with 10 µM inhibitors. The assays and data evaluation for melting temperatures were performed using a Real-Time PCR Mx3005p machine (Stratagene) and the protocols previously […]
Isothermal titration calorimetry: All calorimetric titration experiments were carried out on VP-ITC (MicroCal) at 15 °C. The buffer condition used was 20 mM HEPES, pH 7.5, 150 mM NaCl and 0.5 mM TCEP. Titration was performed by injecting the proteins (200 µM) into a […]
Integrated heat of the titrations after corrected for the heat of dilution were analysed using the Origin program. The corrected data were fitted to a single binding site model using a nonlinear least-square minimization algorithm, and the binding parameters including reaction enthalpy changes (ΔH), reaction […] changes (TΔS), equilibrium dissociation constants (KD), stoichiometry (n) were calculated.
AlphaScreen: AlphaScreen was performed as described previously 10, with minor modifications from the manufacturers protocol (PerkinElmer, USA). […]
Plates were sealed and incubated at room temperature for 30 min. […] Plates were foil sealed to protect from light, incubated at room temperature for 60 min and read on a PHERAstar FS plate reader (BMG Labtech, Germany) using an AlphaScreen 680 excitation/570 emission filter set. […]

Sequence of BAZ2B (Q9UIF8 whole entry): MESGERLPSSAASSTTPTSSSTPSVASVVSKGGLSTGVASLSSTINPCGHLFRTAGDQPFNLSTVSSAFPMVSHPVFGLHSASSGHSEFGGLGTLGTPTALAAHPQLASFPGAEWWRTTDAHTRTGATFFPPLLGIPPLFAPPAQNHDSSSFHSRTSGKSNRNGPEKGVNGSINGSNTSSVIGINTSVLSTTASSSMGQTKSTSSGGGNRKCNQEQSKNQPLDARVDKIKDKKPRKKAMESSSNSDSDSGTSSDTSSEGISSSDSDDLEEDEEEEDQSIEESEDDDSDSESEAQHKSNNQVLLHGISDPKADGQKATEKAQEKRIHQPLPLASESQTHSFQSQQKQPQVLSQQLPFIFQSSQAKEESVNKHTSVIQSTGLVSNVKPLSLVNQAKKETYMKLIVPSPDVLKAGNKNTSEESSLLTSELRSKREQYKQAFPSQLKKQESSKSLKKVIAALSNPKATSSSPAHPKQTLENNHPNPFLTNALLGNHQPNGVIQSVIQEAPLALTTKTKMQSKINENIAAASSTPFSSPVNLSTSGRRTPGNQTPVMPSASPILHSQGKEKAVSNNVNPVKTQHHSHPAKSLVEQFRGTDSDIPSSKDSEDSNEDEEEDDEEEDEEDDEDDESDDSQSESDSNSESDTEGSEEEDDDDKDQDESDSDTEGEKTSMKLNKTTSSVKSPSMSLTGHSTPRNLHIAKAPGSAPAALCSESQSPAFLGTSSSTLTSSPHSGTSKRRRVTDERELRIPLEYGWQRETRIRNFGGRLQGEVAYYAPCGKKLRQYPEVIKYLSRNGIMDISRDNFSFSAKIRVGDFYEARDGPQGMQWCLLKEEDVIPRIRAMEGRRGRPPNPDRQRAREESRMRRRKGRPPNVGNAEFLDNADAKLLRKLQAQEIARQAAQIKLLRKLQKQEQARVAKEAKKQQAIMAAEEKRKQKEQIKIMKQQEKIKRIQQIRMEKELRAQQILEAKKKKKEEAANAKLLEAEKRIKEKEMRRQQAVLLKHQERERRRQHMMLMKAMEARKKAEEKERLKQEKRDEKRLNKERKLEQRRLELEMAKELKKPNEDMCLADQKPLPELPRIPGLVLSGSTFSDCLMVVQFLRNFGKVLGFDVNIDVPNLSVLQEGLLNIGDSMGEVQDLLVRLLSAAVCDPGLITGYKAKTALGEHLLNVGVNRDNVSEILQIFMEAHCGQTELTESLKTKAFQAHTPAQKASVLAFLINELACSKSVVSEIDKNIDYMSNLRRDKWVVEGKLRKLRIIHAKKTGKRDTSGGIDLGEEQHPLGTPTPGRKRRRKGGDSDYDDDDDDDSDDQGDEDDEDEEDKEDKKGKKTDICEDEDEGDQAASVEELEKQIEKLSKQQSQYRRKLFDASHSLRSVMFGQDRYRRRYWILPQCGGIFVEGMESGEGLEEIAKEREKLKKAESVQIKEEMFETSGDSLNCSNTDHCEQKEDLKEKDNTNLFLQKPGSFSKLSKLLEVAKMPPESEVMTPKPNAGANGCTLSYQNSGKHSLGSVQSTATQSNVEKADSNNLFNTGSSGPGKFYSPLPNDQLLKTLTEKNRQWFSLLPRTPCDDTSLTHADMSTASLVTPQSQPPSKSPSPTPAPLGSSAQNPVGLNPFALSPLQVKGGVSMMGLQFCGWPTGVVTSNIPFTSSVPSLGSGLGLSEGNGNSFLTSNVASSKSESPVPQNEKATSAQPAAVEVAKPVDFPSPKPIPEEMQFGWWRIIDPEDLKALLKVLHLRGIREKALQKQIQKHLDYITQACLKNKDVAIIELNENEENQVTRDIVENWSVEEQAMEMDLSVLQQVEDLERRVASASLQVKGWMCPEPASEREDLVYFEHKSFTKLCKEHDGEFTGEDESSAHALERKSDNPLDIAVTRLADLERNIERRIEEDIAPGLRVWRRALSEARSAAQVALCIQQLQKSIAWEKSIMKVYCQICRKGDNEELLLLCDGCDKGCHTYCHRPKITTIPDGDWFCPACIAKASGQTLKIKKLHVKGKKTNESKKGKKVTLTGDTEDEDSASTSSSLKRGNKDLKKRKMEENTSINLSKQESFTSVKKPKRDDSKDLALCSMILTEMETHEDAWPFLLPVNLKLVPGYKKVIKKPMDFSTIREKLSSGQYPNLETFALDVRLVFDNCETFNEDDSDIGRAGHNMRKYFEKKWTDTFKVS

CC(=O)c1cc(-c2ccccc2S(C)(=O)=O)c2ccccn12 [Compound 12, 1-(1-(2-(methylsulfonyl)phenyl)indolizin-3-yl)ethanone] gave an IC50 [1] of 17.9 ± 3.85 µM, an IC50 [2] of 0.72 ± 0.07 µM and an IC50 [3] of over 50 µM.

In the case of CC(=O)c1cc(-c2ccccc2CO)c2cc(N3CCOCC3)ccn12 [Compound 15, 1-(1-(2-(hydroxymethyl)phenyl)-7-morpholinoindolizin-3-yl)ethanone], the IC50 [2] is reported as 1.7 ± 0.13 µM.

CC(=O)c1cc(-c2ccccc2CO)c2cc(C)ccn12 [Compound 13, 1-(1-(2-(hydroxymethyl)phenyl)-7-methylindolizin-3-yl)ethanone] was tested, and the IC50 [2] was 1 ± 0.09 µM.

In the case of CC(=O)c1cc(-c2cccc(O)c2)c2ccccn12 [Compound 6, 1-(1-(3-hydroxyphenyl)indolizin-3-yl)ethanone], the IC50 [2] is reported as 3.3 ± 0.05 µM.

CC(=O)c1cc(-c2ccccc2S(C)(=O)=O)c2cc(Oc3ccccc3)ccn12 [Compound 20, 1-(1-(2-(methylsulfonyl)phenyl)-7-phenoxyindolizin-3-yl)ethanone] was tested, and the IC50 [1] was 19.9 ± 1.84 µM, the IC50 [2] was 0.55 µM and the IC50 [3] was over 50 µM.

For CC(=O)c1cc(-c2cccs2)c2ccccn12 [Compound 4, 1-(1-(Thiophen-2-yl)indolizin-3-yl)ethanone], the IC50 [2] was 8.6 ± 0.01 µM.

In the case of CCCOc1ccn2c(C(C)=O)cc(-c3cccc(OC)c3)c2c1 [Compound 23, 1-(1-(3-Methoxyphenyl)-7-propoxyindolizin-3-yl)ethanone], the Kd [4] is reported as 1.04 µM, the “binding enthalpy change ΔH BRD9” value [4] is reported as −8.98 (± 0.152) kcal/mol and the “pKd BRD9” value [5] is reported as 4.5. For the same compound, the “pKd SMARCA2 and 4” value [6] was 4.8, the “selectivity in BLI bromodomain panel” value [7] was “inactive against BAZ2A/B and all other bromodomains except BRD9” and the “binding to endogenous BAZ2B” value [8] was “did not show any binding”. The “binding to endogenous BAZ2A” value [9] was “did not show any binding”.

With CC(=O)c1cc(-c2ccccc2O)c2ccccn12 [Compound 5, 1-(1-(2-hydroxyphenyl)indolizin-3-yl)ethanone] the IC50 [2] was 7.2 ± 0.06 µM.

With CC(=O)c1cc(-c2ccc(CO)cc2)c2ccccn12 [Compound 10, 1-(1-(4-(hydroxymethyl)phenyl)indolizin-3-yl)ethanone] the IC50 [2] was 1.2 ± 0.07 µM.

Compound CC(=O)c1cc(-c2ccccc2S(C)(=O)=O)c2cc(CNC(=O)OC(C)(C)C)ccn12 [Compound 18, tert-butyl ((3-acetyl-1-(2-(methylsulfonyl)phenyl)indolizin-7-yl)methyl)carbamate] has an IC50 [1] of 1.4 ± 0.04 µM, an IC50 [2] of 0.16 ± 0.05 µM and an IC50 [3] of over 50 µM.

For CC(=O)c1cc(-c2ccccc2CO)c2cc(Oc3ccccc3)ccn12 [Compound 17, 1-(1-(2-(hydroxymethyl)phenyl)-7-phenoxyindolizin-3-yl)ethanone], the IC50 [2] was 4.1 ± 0.06 µM.

Work on COc1cccc(-c2cc(C(C)=O)n3ccccc23)c1 [Compound 3, 1-(1-(3-Methoxyphenyl)indolizin-3-yl)ethanone] yielded an IC50 [2] of over 30 µM.

COc1ccn2c(C(C)=O)cc(-c3ccccc3S(C)(=O)=O)c2c1 [Compound 21, 1-(7-methoxy-1-(2-(methylsulfonyl)phenyl)indolizin-3-yl)ethanone] was tested, and the IC50 [1] was over 50 µM, the IC50 [2] was 0.58 ± 0.05 µM and the IC50 [3] was over 50 µM.

CC(=O)c1cc(-c2ccccc2CO)c2cc(C(N)=O)ccn12 [Compound 16, 3-acetyl-1-(2-(hydroxymethyl)phenyl)indolizine-7-carboxamide] showed an IC50 [2] of 4.1 ± 0.09 µM.

In the case of CC(=O)c1cc(-c2ccc(N(C)C)cc2)c2ccccn12 [Compound 11, 1-(1-(4-(dimethylamino)phenyl)indolizin-3-yl)ethanone], the IC50 [2] is reported as 1.1 ± 0.07 µM.

For COc1ccc(-c2cc(C(C)=O)n3ccccc23)c(CO)c1 [Compound 9, 1-(1-(2-(hydroxymethyl)-4-methoxyphenyl)indolizin-3-yl)ethanone], the IC50 [2] was 1.4 ± 0.01 µM.

CC(=O)c1cc(-c2ccccc2S(C)(=O)=O)c2cc(C)ccn12 [Compound 22, 1-(7-methyl-1-(2-(methylsulfonyl)phenyl)indolizin-3-yl)ethanone] showed an IC50 [2] of 0.89 µM.

CC(=O)c1cc(-c2cccc(C(N)=O)c2)c2ccccn12 [Compound 8, 3-(3-acetylindolizin-1-yl)benzamide] showed an IC50 [2] of 1.8 ± 0.02 µM.

In the case of CC(=O)c1cc(-c2ccccc2CO)c2ccccn12 [Compound 7, 1-(1-(2-(hydroxymethyl)phenyl)indolizin-3-yl)ethanone], the IC50 [1] is reported as 23.7 ± 0.16 µM, the IC50 [2] is reported as 1.8 ± 0.05 µM and the IC50 [3] is reported as 38.9 ± 13.3 µM.

For CCCOc1ccn2c(C(C)=O)cc(-c3ccccc3S(C)(=O)=O)c2c1 [Compound 19, 1-(1-(2-(methylsulfonyl)phenyl)-7-propoxyindolizin-3-yl)ethanone], the “binding enthalpy change ΔH BRD9” value [4] was −9.8 (±0.01) kcal/mol, the Kd ([4]; listed as GSK2801) was 1.2 µM and the IC50 [1] was over 50 µM. The ΔTm at 10 µM [10] was 2.3 °C, the IC50 [3] was over 50 µM and the “binding enthalpy change ΔH TAF1L(2)” value [11] was −8.6 (±0.02) kcal/mol. The Kd ([11]; listed as GSK2801) was 3.2 µM and 3.19 µM.

Compound COc1ccn2c(C(C)=O)cc(-c3ccccc3CO)c2c1 [Compound 14, 1-(1-(2-(hydroxymethyl)phenyl)-7-methoxyindolizin-3-yl)ethanone] has an IC50 [2] of 1.2 ± 0.01 µM.
